The assay concerns P388 leukemia ip, CD2F1 mice, survival T/C. Put plainly: NCI In Vivo Anticancer Drug Screen. Data for tumor model P388 Leukemia (intraperitoneal) in CD2F1 (CDF1) mice. Conditions: endpoint: median survival time, higher = longer survival. The method in brief: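 Mice carrying the transplanted tumor received test compound or vehicle. Survival was recorded in each group, and the value is the treated-group measurement divided by that of the vehicle-treated control group.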

The mark [1] stands for this setting: dose: 60.0 mg/kg/injection, schedule: Q01DX005 (ip), vehicle: saline with Tween-80.
Where [2] appears, read: dose: 120.0 mg/kg/injection, schedule: Q01DX005 (ip), vehicle: saline with Tween-80.
[3] abbreviates: dose: 240.0 mg/kg/injection, schedule: Q01DX005 (ip), vehicle: saline with Tween-80.
Where [4] appears, read: dose: 50.0 mg/kg/injection, schedule: Q01DX009 (ip), vehicle: saline with Tween-80.
The mark [5] stands for this setting: dose: 100.0 mg/kg/injection, schedule: Q01DX009 (ip), vehicle: saline with Tween-80.
Setting [6] is: dose: 200.0 mg/kg/injection, schedule: Q01DX009 (ip), vehicle: saline with Tween-80.
[7] abbreviates: dose: 50.0 mg/kg/injection, schedule: Q01DX009 (ip), vehicle: Klucel (hydroxypropylcellulose) (HPC).
Setting [8] is: dose: 100.0 mg/kg/injection, schedule: Q01DX009 (ip), vehicle: Klucel (hydroxypropylcellulose) (HPC).
Setting [9] is: dose: 50.0 mg/kg/injection, schedule: Q01DX005 (ip), vehicle: saline with Tween-80.
Where [10] appears, read: dose: 100.0 mg/kg/injection, schedule: Q01DX005 (ip), vehicle: saline with Tween-80.
[11] abbreviates: dose: 200.0 mg/kg/injection, schedule: Q01DX005 (ip), vehicle: saline with Tween-80.
The mark [12] stands for this setting: dose: 200.0 mg/kg/injection, schedule: Q01DX009 (ip), vehicle: Klucel (hydroxypropylcellulose) (HPC).
Setting [13] is: dose: 400.0 mg/kg/injection, schedule: Q01DX009 (ip), vehicle: Klucel (hydroxypropylcellulose) (HPC).
[14] abbreviates: dose: 50.0 mg/kg/injection, schedule: Q01DX009 (ip), vehicle: saline.
The mark [15] stands for this setting: dose: 100.0 mg/kg/injection, schedule: Q01DX009 (ip), vehicle: saline.

Here are results for 25 compounds from PubChem BioAssay AID330 (DTP/NCI, 2004).

Molecules are shown by their SMILES. Where “and” joins values, the source holds several entries; their conditions need not be identical. Equal entries are not always repeated. Toxic doses and inconclusive results are not listed.

For `Cc1cccc(C)c1NC(=O)C(=O)C(C#N)c1c(Cl)cccc1Cl` (stereo not drawn), the T/C under setting [1] is 102 % of control, the T/C under setting [2] was 102 % of control and the T/C under setting [3] is 104 % of control.

With `CCOC(=N)c1cn(C2OC(CO)C(O)C2O)c2ncnc(N)c12` (stereo not drawn), the T/C is, setting by setting: (dose: 0.2 mg/kg/injection, schedule: Q01DX009 (ip), vehicle: saline) 161 % of control; (dose: 0.25 mg/kg/injection, schedule: Q01DX009 (ip), vehicle: saline) 150 % of control; (dose: 0.3 mg/kg/injection, schedule: Q01DX009 (ip), vehicle: saline) 157 % of control; (dose: 0.5 mg/kg/injection, schedule: Q01DX009 (ip), vehicle: saline) 159 % of control; (dose: 1.0 mg/kg/injection, schedule: Q01DX009 (ip), vehicle: saline) 118 % of control; (dose: 2.0 mg/kg/injection, schedule: Q01DX009 (ip), vehicle: saline) 90 % of control.

With `CCC(=O)C(=O)c1ccc(O)c(C)c1O`, the T/C under setting [4] was 100 % of control, the T/C under setting [5] was 96 % of control and the T/C under setting [6] was 90 % of control.

`CC1CCC23COC(=O)C2=CCCC3C12CC(c1ccoc1)OC2=O` (stereo not drawn): the T/C (dose: 0.03 mg/kg/injection, schedule: Q01DX009 (ip), vehicle: saline) was 107 % of control; the T/C (dose: 0.06 mg/kg/injection, schedule: Q01DX009 (ip), vehicle: saline) was 104 % of control; the T/C (dose: 0.12 mg/kg/injection, schedule: Q01DX009 (ip), vehicle: saline) was 107 % of control; the T/C (dose: 0.24 mg/kg/injection, schedule: Q01DX009 (ip), vehicle: saline) was 103 % of control; the T/C (dose: 0.5 mg/kg/injection, schedule: Q01DX009 (ip), vehicle: Klucel (hydroxypropylcellulose) (HPC)) was 96 % of control; the T/C (dose: 1.0 mg/kg/injection, schedule: Q01DX009 (ip), vehicle: Klucel (hydroxypropylcellulose) (HPC)) was 96 % of control. In addition, where the note is “dose: 2.0 mg/kg/injection, schedule: Q01DX009 (ip), vehicle: Klucel (hydroxypropylcellulose) (HPC)”, the T/C was 98 % of control.

`O=C(O)Cc1cn2cc(Br)cc(Br)c2n1`: the T/C is 109 % of control (dose: 100.0 mg/kg/injection, schedule: Q01DX001 (ip), vehicle: saline with Tween-80); 97 % of control (dose: 200.0 mg/kg/injection, schedule: Q01DX001 (ip), vehicle: saline with Tween-80); 98 % of control (dose: 400.0 mg/kg/injection, schedule: Q01DX001 (ip), vehicle: saline with Tween-80).

On to `CC1=Nc2nc(=NCCCN(C)C)nc3cccc(n23)N1`, for which the T/C runs as follows: (dose: 15.0 mg/kg/injection, schedule: Q01DX005 (ip), vehicle: saline with Tween-80) 99 % of control; (dose: 30.0 mg/kg/injection, schedule: Q01DX005 (ip), vehicle: saline with Tween-80) 100 % of control; under setting [1], 104 % of control and 97 % of control.

As to `CN1C(=O)C(O)(C2=C3OCOC3=CC(=O)C2=O)c2ccccc21` (stereo not drawn), the T/C runs as follows: (dose: 6.25 mg/kg/injection, schedule: Q01DX005 (ip), vehicle: saline) 105 % of control; (dose: 12.5 mg/kg/injection, schedule: Q01DX005 (ip), vehicle: saline) 103 % of control; (dose: 25.0 mg/kg/injection, schedule: Q01DX005 (ip), vehicle: saline) 102 % of control.

As for `c1ccc2c(CNC3CCCCC3)c[nH]c2c1`, the T/C (dose: 25.0 mg/kg/injection, schedule: Q01DX009 (ip), vehicle: Klucel (hydroxypropylcellulose) (HPC)) is 109 % of control; the T/C under setting [7] is 98 % of control; the T/C under setting [8] is 96 % of control.

As to `CC(C)CC(NC(=O)C(C)N)C(=O)OC(C)(C)C` (stereo not drawn), the T/C under setting [9] was 101 % of control, the T/C under setting [10] was 102 % of control and the T/C under setting [11] was 96 % of control.

As to `C(=C\c1cc2ccc(C3=NCCN3)cc2[nH]1)/c1cc2ccc(C3=NCCN3)cc2[nH]1`, the T/C (dose: 100.0 mg/kg/injection, schedule: Q04DX003 (ip), vehicle: saline) is 162 % of control; the T/C (dose: 200.0 mg/kg/injection, schedule: Q04DX003 (ip), vehicle: saline) is 162 % of control; the T/C (dose: 400.0 mg/kg/injection, schedule: Q04DX003 (ip), vehicle: saline) is 271 % of control.

For the compound `CCc1ccc(C(=O)O)cc1S(=O)(=O)Cl`, the T/C is 95 % of control (dose: 12.5 mg/kg/injection, schedule: Q01DX009 (ip), vehicle: saline sonified); 86 % of control (dose: 25.0 mg/kg/injection, schedule: Q01DX009 (ip), vehicle: saline sonified); 95 % of control (dose: 50.0 mg/kg/injection, schedule: Q01DX009 (ip), vehicle: saline sonified).

In the case of `CCOC(=O)/C(C#N)=C/Nc1cc(C(=O)OC)ccc1C`, the T/C reads like this: under setting [9], 88 % of control; under setting [10], 90 % of control.

As to `COc1cc2cc[n+]3c4ccc([N+](=O)[O-])cc4ccc3c2cc1OC`, under setting [11], the T/C was 89 % of control.

With `CCn1c2ccccc2c2c3c(NCCCN(C)C)cc(C)nc3ccc21`, the T/C was 93 % of control (dose: 5.5 mg/kg/injection, schedule: Q01DX009 (ip), vehicle: suspension in saline); 97 % of control (dose: 11.0 mg/kg/injection, schedule: Q01DX009 (ip), vehicle: suspension in saline); 97 % of control (dose: 22.0 mg/kg/injection, schedule: Q01DX009 (ip), vehicle: suspension in saline).

With `Cc1cn(CCCn2cnc3c(N)ncnc32)c(=O)[nH]c1=O`, the T/C runs as follows: under setting [1], 95 % of control; under setting [2], 98 % of control; under setting [3], 107 % of control.

For `CCCCCCCCCC#CC(=O)O`, the T/C under setting [4] is 95 % of control, the T/C under setting [5] was 110 % of control and the T/C under setting [6] is 89 % of control.

`CCC1C(OC)=CC(CC)(CO)C=C1OC` (stereo not drawn): the T/C is 95 % of control under setting [9], 95 % of control under setting [10] and 100 % of control under setting [11].

Turning to `CCOC(=O)Nc1ccc(SCC2COC(Cn3ccnc3)(c3ccc(Cl)cc3Cl)O2)cc1` (stereo not drawn), the T/C (dose: 12.5 mg/kg/injection, schedule: Q01DX001 (ip), vehicle: saline) is 104 % of control; the T/C (dose: 25.0 mg/kg/injection, schedule: Q01DX001 (ip), vehicle: saline) was 107 % of control; the T/C (dose: 50.0 mg/kg/injection, schedule: Q01DX001 (ip), vehicle: saline) is 110 % of control.

Take `O=C1OC(c2ccccc2)Sc2ccccc21` (stereo not drawn): the T/C reads like this: under setting [8], 99 % of control; under setting [12], 95 % of control; under setting [13], 92 % of control.

For the compound `Brc1ccc2c(ccc3c2nnc2nccn23)c1`, the T/C was 91 % of control and 95 % of control (dose: 60.0 mg/kg/injection, schedule: Q01DX005 (ip), vehicle: Klucel (hydroxypropylcellulose) (HPC)); 97 % of control (dose: 120.0 mg/kg/injection, schedule: Q01DX005 (ip), vehicle: Klucel (hydroxypropylcellulose) (HPC)); 86 % of control and 94 % of control (dose: 240.0 mg/kg/injection, schedule: Q01DX005 (ip), vehicle: Klucel (hydroxypropylcellulose) (HPC)).

`O=C(CCl)NC(Cc1ccsc1)C(=O)O` (stereo not drawn): the T/C by setting is: under setting [14], 93 % of control; under setting [15], 102 % of control.

`OCc1cc2ccccc2c2c1OCCOCCOCCOCCOCCOc1ccc3ccccc3c1-2`: the T/C is, setting by setting: (dose: 100.0 mg/kg/injection, schedule: Q04DX002 (ip), vehicle: saline with Tween-80) 104 % of control; (dose: 200.0 mg/kg/injection, schedule: Q04DX002 (ip), vehicle: saline with Tween-80) 99 % of control; (dose: 400.0 mg/kg/injection, schedule: Q04DX002 (ip), vehicle: saline with Tween-80) 107 % of control.

Regarding `Cc1cc(C2(c3cc(C)c(O)c(C)c3)c3ccccc3-c3ccccc32)cc(C)c1O`, the T/C is 99 % of control under setting [7], 99 % of control under setting [8] and 96 % of control under setting [12].

For the compound `O=C(Oc1ccc(Cl)cc1Cl)c1ccc([N+](=O)[O-])cc1`, the T/C reads like this: under setting [8], 96 % of control; under setting [12], 87 % of control; under setting [13], 96 % of control.

For `c1ccc2c(C3CO3)c3ccccc3c(C3CO3)c2c1` (stereo not drawn), the T/C by setting is: under setting [14], 99 % of control; under setting [15], 116 % of control; (dose: 200.0 mg/kg/injection, schedule: Q01DX009 (ip), vehicle: saline) 116 % of control.
